Read-outs that look alike come from different tables or passages of the source. Ends that are not written are not given here.
What was measured:
BHL = format: biochemical, Pseudomonas aeruginosa
OdDHL = format: biochemical, Pseudomonas aeruginosa
E. coli D31 = format: cell-based

With O=S(=O)(F)Cc1ccccc1 [PMSF, phenylmethanesulphonyl fluoride] the “effect of pre-incubation of ES with inhibitor on BHL degradation” value (BHL) was “degradation was prevented” and the “effect of inhibitor on OdDHL degradation by ES” value (OdDHL) was “inhibited”.

“Cecropin B (KWKVFKKIEKMGRNIRNGIVKAGPAIAVLGEAKAL; ends and bridges not checked; UniProt P01508 27-61, looked up) [Cecropin B (Sigma), anti-microbial standard]” gave an antimicrobial plaque diameter (E. coli D31; 2 μl Cecropin B at 10 μg/ml) of 4.25 mm and an antimicrobial plaque diameter (E. coli D31; 2 μl Cecropin B at 100 μg/ml) of 8 mm.

From US20050260183A1, “Treatment of surfaces populated by bacteria with a lucilia sericata extract” (priority 2002, published 2005)
